Like-named read-outs stand apart in the source and are kept apart here. Where only a bound is given, the exact number is not on record here.

Experiment [1] concerns Ramos cells. Kind of experiment: Cytotoxicity in Ramos cells. It counts as cell-based. To be noted: cytotoxicity in Ramos cells, read-out: Ramos Cell EC50.
Experiment [2] addresses T1, F1F0-ATPase (Bos taurus, UniProt P13621).
T1 construct: from tissue
Kind of experiment: Inhibition of F1F0-ATPase activity in synthesizing ATP. The class given is biochemical. As to conditions: inhibition of ATP synthesis by F1F0-ATPase; read-out: ATP Syn IC50.

On to `O=C(N=C(NCc1ccc(F)cc1Cl)Nc1cc(-c2ccc(F)cc2)n[nH]1)c1cccc(Cl)c1` [Compound A-452], for which the EC50 (commonly the concentration that produces a half-maximal response) in experiment [1] (Homo sapiens) is < 10 µM. Also, the IC50 (usually the concentration that gives 50% inhibition) in experiment [2] is < 10 µM.
As to `CC(C)(C)N/C(=N/C(=O)c1ccc(Cl)cc1)Nc1cc(-c2ccc(F)cc2)n[nH]1` [Compound A-453], the EC50 in experiment [1] was < 10 µM. In addition, the IC50 in experiment [2] was < 10 µM.
Turning to `O=C(/N=C(/NCc1ccc(F)cc1Cl)Nc1cc(-c2ccc(F)cc2)n[nH]1)c1ccc(Cl)cc1` [Compound A-454], the EC50 in experiment [1] was < 10 µM. In experiment [2], the IC50 was < 10 µM.
Regarding `O=C(/N=C(/Nc1cc(F)cc(Cl)c1)Nc1cc(-c2ccc(F)cc2)n[nH]1)c1ccc(Cl)cc1` [Compound A-455], the EC50 in experiment [1] was < 10 µM. Further, the IC50 in experiment [2] was < 10 µM.
Regarding `CC(C)(C)N/C(=N/C(=O)c1cccc(F)c1)Nc1cc(-c2ccc(F)cc2)n[nH]1` [Compound A-456], the EC50 in experiment [1] was < 10 µM. Moreover, the IC50 in experiment [2] is < 10 µM.
As to `O=C(/N=C(/NCc1ccc(F)cc1Cl)Nc1cc(-c2ccc(F)cc2)n[nH]1)c1cccc(F)c1` [Compound A-457], in experiment [1], the EC50 is < 10 µM. Besides, the IC50 in experiment [2] was < 10 µM.
For the molecule `O=C(/N=C(/Nc1cc(F)cc(Cl)c1)Nc1cc(-c2ccc(F)cc2)n[nH]1)c1cccc(F)c1` [Compound A-458], in experiment [1], the EC50 is < 10 µM. The IC50 in experiment [2] was < 10 µM.
Regarding `CC(C)(C)N/C(=N/C(=O)c1ccc(F)cc1)Nc1cc(-c2ccc(F)cc2)n[nH]1` [Compound A-459], the EC50 in experiment [1] is < 10 µM. The IC50 in experiment [2] was < 10 µM.
For `O=C(N=C(NCc1ccc(F)cc1Cl)Nc1cc(-c2ccc(F)cc2)n[nH]1)c1ccc(F)cc1` [Compound A-460], the EC50 in experiment [1] (Homo sapiens) was < 10 µM. For the same molecule, the IC50 in experiment [2] is < 10 µM.
`O=C(N=C(Nc1cc(F)cc(Cl)c1)Nc1cc(-c2ccc(F)cc2)n[nH]1)c1ccc(F)cc1` [Compound A-461]: the EC50 in experiment [1] (Homo sapiens) was < 10 µM. Moreover, the IC50 in experiment [2] is < 10 µM.
With `COc1ccc(-c2cc(NC(=NC(=O)c3ccc(Cl)c(F)c3)NC3CCOCC3)n[nH]2)cc1` [Compound A-462], the EC50 in experiment [1] (Homo sapiens) is > 10 µM. Also, in experiment [2], the IC50 was > 10 µM.
Turning to `O=C(/N=C(\Nc1cc(-c2cccc(Cl)c2)n[nH]1)NC1CCOCC1)c1ccc(Cl)c(F)c1` [Compound A-463], in experiment [1], the EC50 is > 10 µM. For the same molecule, the IC50 in experiment [2] is < 10 µM.
Take `O=C(/N=C(\Nc1cc(-c2ccc(Cl)cc2)n[nH]1)NC1CCOCC1)c1ccc(Cl)c(F)c1` [Compound A-464]: the EC50 in experiment [1] is > 10 µM. For the same molecule, the IC50 in experiment [2] is > 10 µM.
On to `O=C(N=C(Nc1cc(-c2ccc(F)cc2)n[nH]1)NC1CCOCC1)c1ccc(C(F)(F)F)cc1` [Compound A-465], for which the EC50 in experiment [1] (Homo sapiens) is > 10 µM. In addition, the half-maximal inhibitory concentration (IC50) in experiment [2] is > 10 µM.
Regarding `O=C(N=C(Nc1cc(-c2ccccc2)[nH]n1)NC1CCOCC1)c1ccc(C(F)(F)F)cc1` [Compound A-466], the EC50 in experiment [1] (Homo sapiens) is > 10 µM. Further, in experiment [2], the IC50 was > 10 µM.
For the molecule `COc1ccc(-c2cc(N/C(=N\C(=O)c3ccc(Cl)c(F)c3)NC(C)(C)C)[nH]n2)cc1` [Compound A-467], the EC50 in experiment [1] was < 10 µM. In addition, the IC50 in experiment [2] is < 10 µM.
Take `CC(C)(C)NC(=NC(=O)c1ccc(Cl)c(F)c1)Nc1cc(-c2cccc(Cl)c2)[nH]n1` [Compound A-468]: the EC50 in experiment [1] (Homo sapiens) was < 10 µM. Besides, in experiment [2], the IC50 is < 10 µM.
With `CC(C)(C)NC(=NC(=O)c1ccc(Cl)c(F)c1)Nc1cc(-c2ccc(Cl)cc2)n[nH]1` [Compound A-469], the EC50 in experiment [1] (Homo sapiens) was < 10 µM. Moreover, in experiment [2], the IC50 was < 10 µM.
With `Cc1ccc(-c2cc(NC(=NC(=O)c3ccc(Cl)c(F)c3)NC(C)(C)C)[nH]n2)cc1` [Compound A-470], the EC50 in experiment [1] (Homo sapiens) was > 10 µM. The IC50 in experiment [2] was < 10 µM.
As to `COc1ccc(-c2cc(N/C(=N\C(=O)c3ccc(Cl)c(F)c3)NCc3ccc(F)cc3Cl)[nH]n2)cc1` [Compound A-471], the EC50 in experiment [1] is > 10 µM. In addition, the IC50 in experiment [2] is < 10 µM.
As for `O=C(/N=C(/NCc1ccc(F)cc1Cl)Nc1cc(-c2cccc(Cl)c2)n[nH]1)c1ccc(Cl)c(F)c1` [Compound A-472], the EC50 in experiment [1] is > 10 µM. Also, in experiment [2], the IC50 is < 10 µM.
In the case of `O=C(N=C(NCc1ccc(F)cc1Cl)Nc1cc(-c2ccc(Cl)cc2)n[nH]1)c1ccc(Cl)c(F)c1` [Compound A-473], the EC50 in experiment [1] (Homo sapiens) was > 10 µM. Further, the IC50 in experiment [2] is < 10 µM.
In the same order, the values of `Cc1ccc(-c2cc(NC(=NC(=O)c3ccc(Cl)c(F)c3)NCc3ccc(F)cc3Cl)[nH]n2)cc1` [Compound A-474] are > 10 µM and < 10 µM.
Take `O=C(N=C(Nc1cc(F)cc(Cl)c1)Nc1cc(-c2cccc(Cl)c2)[nH]n1)c1ccc(Cl)c(F)c1` [Compound A-475]: in experiment [1] (Homo sapiens), the EC50 was > 10 µM. Further, the half-inhibitory concentration (IC50) in experiment [2] was < 10 µM.
Take `COc1ccc(-c2cc(N/C(=N\C(=O)c3ccc(F)c(F)c3)NCc3ccc(F)cc3Cl)[nH]n2)cc1` [Compound A-476]: the EC50 in experiment [1] was > 10 µM. Further, the IC50 in experiment [2] is < 10 µM.
As to `O=C(/N=C(/NCc1ccc(F)cc1Cl)Nc1cc(-c2cccc(Cl)c2)n[nH]1)c1ccc(F)c(F)c1` [Compound A-477], the EC50 in experiment [1] is > 10 µM. For the same molecule, in experiment [2], the IC50 is < 10 µM.
On to `O=C(/N=C(/NCc1ccc(F)cc1Cl)Nc1cc(-c2ccc(Cl)cc2)n[nH]1)c1ccc(F)c(F)c1` [Compound A-478], for which the EC50 in experiment [1] was < 10 µM. In addition, in experiment [2], the IC50 is < 10 µM.
`Cc1ccc(-c2cc(N/C(=N\C(=O)c3ccc(F)c(F)c3)NCc3ccc(F)cc3Cl)[nH]n2)cc1` [Compound A-479]: the EC50 in experiment [1] was < 10 µM. The IC50 in experiment [2] is < 10 µM.
Take `COc1ccc(-c2cc(N/C(=N\C(=O)c3ccc(F)c(F)c3)Nc3cc(F)cc(Cl)c3)[nH]n2)cc1` [Compound A-480]: the EC50 in experiment [1] was > 10 µM. Further, the IC50 in experiment [2] was < 10 µM.
For `COc1ccc(-c2cc(N/C(=N\C(=O)c3ccc(C(F)(F)F)cc3)Nc3cc(F)cc(Cl)c3)[nH]n2)cc1` [Compound A-481], in experiment [1], the EC50 was > 10 µM. The IC50 in experiment [2] is < 10 µM.
In the case of `O=C(/N=C(/Nc1cc(F)cc(Cl)c1)Nc1cc(-c2ccccc2)n[nH]1)c1ccc(Cl)c(F)c1` [Compound A-482], the EC50 in experiment [1] was < 10 µM. In experiment [2], the IC50 is < 10 µM.
In the case of `O=C(/N=C(/NCc1ccc(F)cc1Cl)Nc1cc(-c2ccccc2)n[nH]1)c1ccc(F)c(F)c1` [Compound A-483], the EC50 in experiment [1] is > 10 µM. Also, in experiment [2], the IC50 was < 10 µM.
Consider `COCC(C)NC(=NC(=O)c1ccnc(N2CCCC2)c1)Nc1cc(-c2ccc(F)cc2)[nH]n1` (stereo not drawn) [Compound A-484], for which, in experiment [1] (Homo sapiens), the EC50 was < 10 µM. Further, the IC50 in experiment [2] was < 10 µM.
Consider `CC(=O)Nc1cc(C(=O)N=C(Nc2cc(-c3ccc(F)cc3)[nH]n2)NC(C)(C)C)ccn1` [Compound A-485], for which the EC50 in experiment [1] (Homo sapiens) was > 10 µM. Besides, the IC50 in experiment [2] is > 10 µM.
On to `CC(C)(C)NC(=NC(=O)c1ccnc(N)c1)Nc1cc(-c2ccc(F)cc2)[nH]n1` [Compound A-486], for which the EC50 in experiment [1] (Homo sapiens) is < 10 µM. For the same molecule, the IC50 in experiment [2] is < 10 µM.
Regarding `CC(C)(C)N/C(=N/C(=O)c1ccnc(N2CCCC2)c1)Nc1cc(-c2ccc(F)cc2)n[nH]1` [Compound A-487], the EC50 in experiment [1] is < 10 µM. Further, the IC50 in experiment [2] is < 10 µM.
`COC[C@H](C)N/C(=N/C(=O)c1ccc(F)cc1F)Nc1cc(-c2ccc(F)cc2)n[nH]1` [Compound A-488]: the EC50 in experiment [1] is < 10 µM. Also, the IC50 in experiment [2] was < 10 µM.
Regarding `CC(C)(C)N/C(=N/C(=O)c1ccc(F)cc1F)Nc1cc(-c2ccc(F)cc2)n[nH]1` [Compound A-489], the 50% effective concentration (EC50) in experiment [1] was < 10 µM. Besides, the IC50 in experiment [2] was < 10 µM.
Take `CC(CC#N)NC(=NC(=O)c1ccc(F)cc1)Nc1cc(-c2ccc(F)cc2)n[nH]1` (stereo not drawn) [Compound A-490]: the EC50 in experiment [1] (Homo sapiens) is < 10 µM. Besides, the IC50 in experiment [2] was < 10 µM.
Regarding `COC[C@H](C)NC(=NC(=O)c1cccc(S(C)(=O)=O)c1)Nc1cc(-c2ccc(F)cc2)n[nH]1` [Compound A-491], the EC50 in experiment [1] (Homo sapiens) was > 10 µM. Besides, in experiment [2], the IC50 is < 10 µM.
Turning to `COC[C@H](C)N/C(=N/C(=O)c1ccc(O)cc1)Nc1cc(-c2ccc(F)cc2)n[nH]1` [Compound A-492], the EC50 in experiment [1] is < 10 µM. The IC50 in experiment [2] is < 10 µM.
On to `COC[C@H](C)N/C(=N/C(=O)c1ccc(OC)nc1)Nc1cc(-c2ccc(F)cc2)n[nH]1` [Compound A-493], for which the EC50 in experiment [1] was < 10 µM. Moreover, the IC50 in experiment [2] is < 10 µM.
On to `COc1ccc(C(=O)/N=C(\Nc2cc(-c3ccc(F)cc3)n[nH]2)NC(C)(C)C)cn1` [Compound A-494], for which the 50% effective concentration (EC50) in experiment [1] is < 10 µM. For the same molecule, the IC50 in experiment [2] is < 10 µM.
As for `COC[C@H](C)N/C(=N/C(=O)c1ccnc(OC)c1)Nc1cc(-c2ccc(F)cc2)n[nH]1` [Compound A-495], the EC50 in experiment [1] was < 10 µM. Also, the IC50 in experiment [2] is < 10 µM.
Turning to `COc1cc(C(=O)/N=C(\Nc2cc(-c3ccc(F)cc3)n[nH]2)NC(C)(C)C)ccn1` [Compound A-496], the EC50 in experiment [1] was < 10 µM. Besides, the IC50 in experiment [2] is < 10 µM.
For the molecule `COCC(C)NC(=NC(=O)c1ccc(S(C)(=O)=O)cc1)Nc1cc(-c2ccc(F)cc2)n[nH]1` (stereo not drawn) [Compound A-497], in experiment [1] (Homo sapiens), the EC50 was < 10 µM. Besides, the IC50 in experiment [2] is < 10 µM.
For the molecule `CC(C)(C)N/C(=N/C(=O)c1ccc(S(C)(=O)=O)cc1)Nc1cc(-c2ccc(F)cc2)n[nH]1` [Compound A-498], in experiment [1], the EC50 is < 10 µM. For the same molecule, the IC50 in experiment [2] is < 10 µM.
As for `CC(C)(C)N/C(=N/C(=O)c1cccc(S(C)(=O)=O)c1)Nc1cc(-c2ccc(F)cc2)n[nH]1` [Compound A-499], in experiment [1], the EC50 is < 10 µM. Besides, the IC50 in experiment [2] was < 10 µM.
In the case of `COC[C@@H](C)NC(=NC(=O)c1ccc(F)cc1)Nc1cc(-c2ccc(F)cc2)n[nH]1` [Compound A-500], the EC50 in experiment [1] (Homo sapiens) is < 10 µM. Besides, in experiment [2], the IC50 was < 10 µM.
For the molecule `O=C(/N=C(\Nc1cc(-c2ccc(F)cc2)n[nH]1)NC1CCC(F)(F)CC1)c1ccc(F)cc1` [Compound A-501], in experiment [1], the EC50 was < 10 µM. For the same molecule, the IC50 in experiment [2] was < 10 µM.
For `N#Cc1cccc(C(=O)/N=C(\Nc2cc(-c3ccc(F)cc3)n[nH]2)NC2CCC(F)(F)CC2)c1` [Compound A-502], in experiment [1], the EC50 was < 10 µM. Besides, in experiment [2], the IC50 was < 10 µM.

Values taken from US9139532B2, “Pyrazolyl guanidine F1F0-atpase inhibitors and therapeutic uses thereof” (Lycera Corporation, priority 2010, dated 2015).
